The values that follow come from patent US20230310445A1, “LOX ENZYME INHIBITING METHODS AND COMPOSITIONS” (ANOVIA BIOSCIENCES, INC., priority 2020, published 2023).

Structures are written as SMILES.

Data set [1] in a line: Microsome stability study. To be noted: for half-life at 2 μM / microsomal CLint at 2 μM / CLint scaled at 2 μM: CD-1, pH 7.4; for half-life at 2 μM / microsomal CLint at 2 μM: male mouse liver microsomes 0.5 mg/mL, NADPH; for CLint scaled at 2 μM: male, read-out: Scaled-up CLint; for CLint scaled at 2 μM / Predicted hepatic CL: mouse liver microsomes. The data set is classed as in vitro ADME, mouse. The procedure:
Pooled CD-1 mouse liver microsomes at 0.5 mg/mL were pre-incubated in phosphate buffer (100 mM, pH 7.4) containing 1 mM NADPH and 3 mM MgCl2 in a 96-well plate for 5 minutes at 37° C. Ultra-pure water was added instead of NADPH in the negative control group to exclude the misleading factor that resulted from instability of chemical itself. The reaction was initiated by adding test compound at the final concentration of 2 μM and incubated at 37° C. Aliquots were taken from the incubation at 0, 15, 30, 45 and 60 minutes followed by the addition of 4 volume of cold acetonitrile containing internal standards. Samples were centrifuged and supernatant was used for LC-MS/MS analysis.

For data set [2], the target named is T1, Recombinant human LOXL2 (lysyl oxidase like 2) (Homo sapiens, UniProt Q9Y4K0).
T1 construct: purchased R&D systems
T1 sequence (Q9Y4K0 26-774): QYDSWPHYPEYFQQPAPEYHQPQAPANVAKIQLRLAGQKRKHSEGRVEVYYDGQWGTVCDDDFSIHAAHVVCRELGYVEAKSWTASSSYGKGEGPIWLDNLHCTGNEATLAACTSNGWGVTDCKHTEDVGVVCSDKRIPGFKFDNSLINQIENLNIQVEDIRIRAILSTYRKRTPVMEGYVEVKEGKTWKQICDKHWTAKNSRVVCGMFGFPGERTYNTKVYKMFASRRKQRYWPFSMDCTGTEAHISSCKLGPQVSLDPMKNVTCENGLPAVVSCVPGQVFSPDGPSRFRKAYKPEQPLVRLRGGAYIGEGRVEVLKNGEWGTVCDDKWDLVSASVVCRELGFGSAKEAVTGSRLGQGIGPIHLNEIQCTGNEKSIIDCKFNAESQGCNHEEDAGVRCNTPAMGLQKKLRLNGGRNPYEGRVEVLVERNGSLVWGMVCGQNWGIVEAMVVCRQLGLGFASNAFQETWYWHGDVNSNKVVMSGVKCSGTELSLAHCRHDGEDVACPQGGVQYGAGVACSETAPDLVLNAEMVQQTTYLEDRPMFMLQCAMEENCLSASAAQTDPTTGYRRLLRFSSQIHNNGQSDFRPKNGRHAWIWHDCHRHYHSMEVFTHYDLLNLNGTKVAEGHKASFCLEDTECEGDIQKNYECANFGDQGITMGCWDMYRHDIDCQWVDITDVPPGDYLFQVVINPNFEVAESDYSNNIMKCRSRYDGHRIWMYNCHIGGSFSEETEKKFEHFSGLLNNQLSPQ
Put plainly: LOXL2 inhibition assay (fluorometric, cadaverine/Amplex Red/HRP). The settings on record: IC50 class; recombinant human LOXL2, cadaverine substrate; read-out: Activity Range LOXL2. The data set is classed as biochemical. The gist of the method: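 Both enzymes assayed in 1.2 M urea, 50 mM sodium borate pH 8.0, 10 mM CaCl, with 30 min compound–enzyme preincubation at 37° C before cadaverine/Amplex Red/HRP addition. Fluorescence followed 60 min at 37° C; linear-slope rates, background-subtracted, as % of DMSO control, fitted by 4-parameter variable-slope curve (bottom fixed at 0).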

Data set [3] addresses T2, Recombinant human LOXL3 (lysyl oxidase like 3) (Homo sapiens, UniProt P58215).
T2 construct: purchased R&D systems
T2 sequence (P58215 26-753): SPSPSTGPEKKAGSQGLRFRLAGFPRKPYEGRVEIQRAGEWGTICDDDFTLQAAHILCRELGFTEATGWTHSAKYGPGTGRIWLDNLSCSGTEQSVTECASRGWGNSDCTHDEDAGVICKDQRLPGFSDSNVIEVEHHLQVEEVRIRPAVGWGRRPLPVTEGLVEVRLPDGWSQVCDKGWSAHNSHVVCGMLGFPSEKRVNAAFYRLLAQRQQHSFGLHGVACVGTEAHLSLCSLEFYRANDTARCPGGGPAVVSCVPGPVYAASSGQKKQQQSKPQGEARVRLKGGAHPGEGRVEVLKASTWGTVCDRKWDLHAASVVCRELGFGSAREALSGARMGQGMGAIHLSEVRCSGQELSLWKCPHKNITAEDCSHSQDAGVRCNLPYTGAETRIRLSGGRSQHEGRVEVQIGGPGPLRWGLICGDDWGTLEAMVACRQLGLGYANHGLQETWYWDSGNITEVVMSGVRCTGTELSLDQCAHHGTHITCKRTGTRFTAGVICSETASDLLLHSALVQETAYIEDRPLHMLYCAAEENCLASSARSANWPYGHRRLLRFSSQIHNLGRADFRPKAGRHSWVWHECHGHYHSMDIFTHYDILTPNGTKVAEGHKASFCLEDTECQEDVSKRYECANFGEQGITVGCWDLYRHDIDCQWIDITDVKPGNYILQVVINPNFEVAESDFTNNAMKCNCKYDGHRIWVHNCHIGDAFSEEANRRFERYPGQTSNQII
Put plainly: LOXL3 inhibition assay (fluorometric, cadaverine/Amplex Red/HRP). The settings on record: IC50 class; recombinant human LOXL3, cadaverine substrate; read-out: Activity Range LOXL3. In kind it is biochemical. The procedure: The ability of compounds to inhibit one or more of the lysyl oxidases LOXL2 and/or LOXL3 was determined using a fluorometric assay. This assay measures the activity of lysyl oxidases by coupling the reaction with horseradish peroxidase-catalyzed […]. The activity assay protocol uses cadaverine as substrate that releases hydrogen peroxide upon transformation by the specific LOX family enzyme present in the sample. Hydrogen peroxide is in turn detected using a red fluorescence substrate for HRP-coupled reactions (Amplex Red Enzyme Assays, Thermo Scientific Fisher). This leads to increase in fluorescence that can be easily detected at Ex/Em=540/590 nm in a fluorescence microplate reader.
Enzymes: Recombinant human LOXL2 (lysyl oxidase like 2) and recombinant human LOXL3 (lysyl oxidase like 3) were purchased from R&D systems and assays were performed in 1.2 M urea, 50 mM sodium borate buffer pH 8.0, and 10 mM CaCl.
Reaction: Final concentration in the LOXL2 and LOXL3 assays were as following and performed in a total volume of […]:
Experimental procedure: 5 μl of freshly prepared reaction buffer were delivered to reaction wells. Compounds were resuspended in 100% DMSO at 10 mM and delivered into buffer using acoustic technology (Echo550; nanoliter range). A 3× solution of LOXL2 or LOXL3 in reaction buffer was prepared (“enzyme solution”) and 5 μL of enzyme solution was added into the reaction wells. Buffer only was added to column 1 for no protein control. Reactions were incubated for 30 minutes at 37° C. A 3×mixture of cadaverine, Amplex Red, and HRP (“Substrate/Detection Mix) was prepared and subsequently 5 μL of the mixture added to each reaction well. Progress of reactions was monitored for 60 minutes at 37° C. using Clariostar plate reader (ex 530-12, ems 600-40). For all activity assays, pan-LOX inhibitor CCT365623 (Tang et al, 2017) and LOXL2/LOXL3 inhibitor PAT-1251 (PharmaKea) were included as standards.
Data analysis: Slope of the linear portion of the progress curve was calculated using Clariostar software. Typical analysis interval was between 8-30 min, but varied between experiments. The background subtracted signals (No protein wells are considered as background) were converted to % activity relative to DMSO controls. Data was analyzed using GraphPad Prism 4 with “sigmoidal dose-response (variable slope)”; 4 parameters with Hill Slope. Constraints: Bottom=Constant equal to 0. Top=Must be less than 120.

As usually defined, the half-life is how long it takes for the measured level to halve. High values mean slow loss, low ones fast loss. For orientation: microsomal CLint means the capacity of the preparation to metabolise the compound, expressed as a volume cleared per time. The term CLint scaled denotes a measure of how fast metabolising enzymes remove a compound, apart from limits set by blood flow. For the compound `CN(C)C(=O)N1C[C@@H](c2ccccc2)C[C@@H](S(=O)(=O)c2cccc(CN)c2)C1.O=C(O)C(F)(F)F` (racemic) [Example 74, cis-3-((3-(Aminomethyl)phenyl)sulfonyl)-N,N-dimethyl-5-phenylpiperidine-1-carboxamide 2,2,2-trifluoroacetate], in data set [1], the half-life at 2 μM is 1.89 h, the microsomal CLint at 2 μM came out at 12.2 µL/min/mg, the CLint scaled at 2 μM was 53.6 mL/min/kg and the “Predicted hepatic CL” value is given as 33.58 mL/min/kg. For the same compound, the IC50 in data set [2] is no more than 500 nM. The IC50 in data set [3] was 1000 to 30000 nM.

In the case of `NCc1ccnc(S(=O)(=O)N2C[C@@H](C(=O)N3CCS(=O)(=O)CC3)C[C@@H](C3CCCCC3)C2)c1.O=C(O)C(F)(F)F` (racemic) [Example 146, cis-(1-((4-(Aminomethyl)pyridin-2-yl)sulfonyl)-5-cyclohexylpiperidin-3-yl)(1,1-dioxidothiomorpholino)methanone 2,2,2-trifluoroacetate], in data set [1], the half-life at 2 μM was found to be 0.533 h, the intrinsic metabolic clearance (microsomal CLint) at 2 μM was 43.3 µL/min/mg, the CLint scaled at 2 μM came out at 190 mL/min/kg and the “Predicted hepatic CL” value is 61.03 mL/min/kg. Further, the IC50 in data set [2] was no more than 500 nM. The IC50 in data set [3] is no more than 500 nM.

On to `CS(=O)(=O)N1C[C@H](Oc2cccc(CN)c2)C[C@H](c2ccccc2F)C1` (racemic) [Example 70, cis-(3-((5-(2-Fluorophenyl)-1-(methylsulfonyl)piperidin-3-yl)oxy)phenyl)methanamine 2,2,2-trifluoroacetate], for which the IC50 in data set [2] is no more than 500 nM; in data set [3], 1000 to 30000 nM.

Regarding `NCc1ccnc(S(=O)(=O)N2C[C@@H](C(=O)N3CCOCC3)C[C@@H](C3CCCCC3)C2)c1` (racemic) [Example 145, cis-(1-((4-(Aminomethyl)pyridin-2-yl)sulfonyl)-5-cyclohexylpiperidin-3-yl)(morpholino)methanone 2,2,2-trifluoroacetate], the IC50 was no more than 500 nM in data set [2] and 500 to 1000 nM in data set [3].

For `NCc1cccc(S(=O)(=O)N2C[C@H](C(=O)N3CCS(=O)(=O)CC3)C[C@@H](c3ccccc3)C2)n1` (racemic) [Example 115T, trans-(1-((6-(Aminomethyl)pyridin-2-yl)sulfonyl)-5-phenylpiperidin-3-yl)(1,1-dioxidothiomorpholino)methanone 2,2,2-trifluoroacetate], the results for the IC50 in data set [2] and in data set [3] were 1000 to 30000 nM and greater than 30000 nM, respectively.

Take `CS(=O)(=O)[C@H]1C[C@@H](S(=O)(=O)c2cccc(CN)c2)CN(c2ccccc2F)C1` (racemic) [Example 92, cis-(3-((-1-(2-Fluorophenyl)-5-(methylsulfonyl)piperidin-3-yl)sulfonyl)phenyl)methanamine 2,2,2-trifluoroacetate]: the values for the IC50 in data set [2] and in data set [3] were no more than 500 nM and 1000 to 30000 nM, respectively.

Turning to `NCc1ccnc(S(=O)(=O)N2C[C@@H](C(=O)N3CCOCC3)C[C@@H](c3ccccc3)C2)c1` [Example 133A, ((3S,5S)-1-((4-(aminomethyl)pyridin-2-yl)sulfonyl)-5-phenylpiperidin-3-yl)(morpholino)methanone 2,2,2-trifluoroacetate], the values for the IC50 in data set [2] and in data set [3] were no more than 500 nM and 500 to 1000 nM, respectively.

On to `CN(C)C(=O)[C@H]1C[C@@H](C2CCCCC2)CN(S(=O)(=O)c2cccc(CN)c2)C1` (relative stereo) [Example 138, cis-1-((3-(Aminomethyl)phenyl)sulfonyl)-5-cyclohexyl-N,N-dimethylpiperidine-3-carboxamide 2,2,2-trifluoroacetate], for which the IC50 in data set [2] is no more than 500 nM; in data set [3], 1000 to 30000 nM.

On to `CS(=O)(=O)[C@H]1C[C@@H](S(=O)(=O)c2cccc(CN)c2)CN(c2ccccc2)C1` (racemic) [Example 23, cis-(3-((-5-(Methylsulfonyl)-1-phenylpiperidin-3-yl)sulfonyl)phenyl)methanamine], for which, in data set [1], the half-life at 2 μM was 4.49 h, the microsomal CLint at 2 μM turned out to be 5.14 µL/min/mg, the CLint scaled at 2 μM worked out at 22.5 mL/min/kg and the “Predicted hepatic CL” value was 18.00 mL/min/kg. In addition, the IC50 in data set [2] is no more than 500 nM. For the same compound, in data set [3], the IC50 was in the range of 1000 to 30000 nM.
